Source: ChEMBL document CHEMBL4251615, “Discovery of anilino-furo[2,3-d]pyrimidine derivatives as dual inhibitors of EGFR/HER2 tyrosine kinase and their anticancer activity” (Eur J Med Chem, 2018)

What follows are compounds tested on UO-31 (assay: Growth inhibition of human UO31 cells assessed as cell growth at 10 uM incubated for 48 hrs by sulforhodamine B assay relative to control). Conditions: UO-31, 48 h, read-out: Activity.
Type: functional

Point of comparison: CCOC(=O)c1c(C)oc2ncnc(Nc3cccc(F)c3)c12, growth at 10 µM 101%. Against it:
- Cc1oc2ncnc(Nc3cccc(Cl)c3)c2c1CO — lower, 56.9%

These compounds were tested on M14 (assay: Growth inhibition of human M14 cells assessed as cell growth at 10 uM incubated for 48 hrs by sulforhodamine B assay relative to control). Conditions: M14, 48 h, read-out: Activity.
Type: functional

Point of comparison: CCOC(=O)c1c(C)oc2ncnc(Nc3cccc(F)c3)c12, growth at 10 µM 98.2%. Against it:
- Cc1oc2ncnc(Nc3cccc(Cl)c3)c2c1CO — lower, 94%

These compounds were tested on SK-MEL-5 (assay: Growth inhibition of human SK-MEL-5 cells assessed as cell growth at 10 uM incubated for 48 hrs by sulforhodamine B assay relative to control). Conditions: SK-MEL-5, 48 h, read-out: Activity.
Type: functional

Point of comparison: CCOC(=O)c1c(C)oc2ncnc(Nc3cccc(F)c3)c12, growth at 10 µM 99%. Against it:
- Cc1oc2ncnc(Nc3cccc(Cl)c3)c2c1CO — lower, 87.9%

These compounds were tested on T47D (assay: Growth inhibition of human T47D cells assessed as cell growth at 10 uM incubated for 48 hrs by sulforhodamine B assay relative to control). Conditions: read-out: Activity.
Type: functional

Point of comparison: CCOC(=O)c1c(C)oc2ncnc(Nc3cccc(F)c3)c12, growth at 10 µM 92.7%. Against it:
- Cc1oc2ncnc(Nc3cccc(Cl)c3)c2c1CO — lower, 78.8%

These compounds were tested on A498 (assay: Growth inhibition of human A498 cells assessed as cell growth at 10 uM incubated for 48 hrs by sulforhodamine B assay relative to control). Conditions: A498, 48 h, read-out: Activity.
Type: functional

Point of comparison: CCOC(=O)c1c(C)oc2ncnc(Nc3cccc(F)c3)c12, growth at 10 µM 75.9%. Against it:
- Cc1oc2ncnc(Nc3cccc(Cl)c3)c2c1CO — lower, 51.6%

The compounds below were run on SF-539 (assay: Growth inhibition of human SF539 cells assessed as cell growth at 10 uM incubated for 48 hrs by sulforhodamine B assay relative to control). Conditions: SF-539, 48 h, read-out: Activity.
Type: functional

Point of comparison: CCOC(=O)c1c(C)oc2ncnc(Nc3cccc(F)c3)c12, growth at 10 µM 99.4%. Against it:
- Cc1oc2ncnc(Nc3cccc(Cl)c3)c2c1CO — lower, 91.6%

The compounds below were run on UACC-62 (assay: Growth inhibition of human UACC62 cells assessed as cell growth at 10 uM incubated for 48 hrs by sulforhodamine B assay relative to control). Conditions: UACC-62, 48 h, read-out: Activity.
Type: functional

Point of comparison: Cc1oc2ncnc(Nc3cccc(Cl)c3)c2c1CO, growth at 10 µM 76.4%. Against it:
- CCOC(=O)c1c(C)oc2ncnc(Nc3cccc(F)c3)c12 — higher, 84%

What follows are compounds tested on NCI-H460 (assay: Growth inhibition of human NCI-H460 cells assessed as cell growth at 10 uM incubated for 48 hrs by sulforhodamine B assay relative to control). Conditions: NCI-H460, 48 h, read-out: Activity.
Type: functional

Point of comparison: CCOC(=O)c1c(C)oc2ncnc(Nc3cccc(F)c3)c12, growth at 10 µM 101%. Against it:
- Cc1oc2ncnc(Nc3cccc(Cl)c3)c2c1CO — lower, 94%

What follows are compounds tested on OVCAR-5 (assay: Growth inhibition of human OVCAR5 cells assessed as cell growth at 10 uM incubated for 48 hrs by sulforhodamine B assay relative to control). Conditions: OVCAR-5, 48 h, read-out: Activity.
Type: functional

Point of comparison: Cc1oc2ncnc(Nc3cccc(Cl)c3)c2c1CO, growth at 10 µM 74.3%. Against it:
- CCOC(=O)c1c(C)oc2ncnc(Nc3cccc(F)c3)c12 — higher, 102%

Each compound was assayed on CCRF-CEM (assay: Growth inhibition of human CCRF-CEM cells assessed as cell growth at 10 uM incubated for 48 hrs by sulforhodamine B assay relative to control). Conditions: read-out: Activity.
Type: functional

Point of comparison: Cc1oc2ncnc(Nc3cccc(Cl)c3)c2c1CO, growth at 10 µM 100%. Against it:
- CCOC(=O)c1c(C)oc2ncnc(Nc3cccc(F)c3)c12 — lower, 98.8%

The compounds below were run on OVCAR-8 (assay: Growth inhibition of human OVCAR8 cells assessed as cell growth at 10 uM incubated for 48 hrs by sulforhodamine B assay relative to control). Conditions: OVCAR-8, 48 h, read-out: Activity.
Type: functional

Point of comparison: Cc1oc2ncnc(Nc3cccc(Cl)c3)c2c1CO, growth at 10 µM 108%. Against it:
- CCOC(=O)c1c(C)oc2ncnc(Nc3cccc(F)c3)c12 — lower, 105%

These compounds were tested on SR (assay: Growth inhibition of human SR cells assessed as cell growth at 10 uM incubated for 48 hrs by sulforhodamine B assay relative to control). Conditions: read-out: Activity.
Type: functional

Point of comparison: Cc1oc2ncnc(Nc3cccc(Cl)c3)c2c1CO, growth at 10 µM 62.2%. Against it:
- CCOC(=O)c1c(C)oc2ncnc(Nc3cccc(F)c3)c12 — higher, 78.6%

Each compound was assayed on NCI-H226 (assay: Growth inhibition of human NCI-H226 cells assessed as cell growth at 10 uM incubated for 48 hrs by sulforhodamine B assay relative to control). Conditions: NCI-H226, 48 h, read-out: Activity.
Type: functional

Point of comparison: CCOC(=O)c1c(C)oc2ncnc(Nc3cccc(F)c3)c12, growth at 10 µM 101%. Against it:
- Cc1oc2ncnc(Nc3cccc(Cl)c3)c2c1CO — lower, 80.6%

These compounds were tested on COLO 205 (assay: Growth inhibition of human COLO205 cells assessed as cell growth at 10 uM incubated for 48 hrs by sulforhodamine B assay relative to control). Conditions: COLO 205, 48 h, read-out: Activity.
Type: functional

Point of comparison: CCOC(=O)c1c(C)oc2ncnc(Nc3cccc(F)c3)c12, growth at 10 µM 104%. Against it:
- Cc1oc2ncnc(Nc3cccc(Cl)c3)c2c1CO — lower, 93.9%

These compounds were tested on NCI/ADR-RES (assay: Growth inhibition of human NCI/ADR-RES cells assessed as cell growth at 10 uM incubated for 48 hrs by sulforhodamine B assay relative to control). Conditions: read-out: Activity.
Type: functional

Point of comparison: CCOC(=O)c1c(C)oc2ncnc(Nc3cccc(F)c3)c12, growth at 10 µM 96.1%. Against it:
- Cc1oc2ncnc(Nc3cccc(Cl)c3)c2c1CO — lower, 86%

These compounds were tested against Epidermal growth factor receptor (Homo sapiens, UniProt P00533) (assay: Inhibition of recombinant human C-terminal His/N-terminal GST-tagged EGFR (668 to 1210 residues) expressed in baculovirus infected Sf9 cells at 10 uM using biotin-labeled poly[Glu:Tyr] (4:1) as substrate after 30 mins by Kinase-Glo plus luminescence assay relative to control). Conditions: not given.
Sequence of Epidermal growth factor receptor (P00533 whole entry, the tested form may be a part): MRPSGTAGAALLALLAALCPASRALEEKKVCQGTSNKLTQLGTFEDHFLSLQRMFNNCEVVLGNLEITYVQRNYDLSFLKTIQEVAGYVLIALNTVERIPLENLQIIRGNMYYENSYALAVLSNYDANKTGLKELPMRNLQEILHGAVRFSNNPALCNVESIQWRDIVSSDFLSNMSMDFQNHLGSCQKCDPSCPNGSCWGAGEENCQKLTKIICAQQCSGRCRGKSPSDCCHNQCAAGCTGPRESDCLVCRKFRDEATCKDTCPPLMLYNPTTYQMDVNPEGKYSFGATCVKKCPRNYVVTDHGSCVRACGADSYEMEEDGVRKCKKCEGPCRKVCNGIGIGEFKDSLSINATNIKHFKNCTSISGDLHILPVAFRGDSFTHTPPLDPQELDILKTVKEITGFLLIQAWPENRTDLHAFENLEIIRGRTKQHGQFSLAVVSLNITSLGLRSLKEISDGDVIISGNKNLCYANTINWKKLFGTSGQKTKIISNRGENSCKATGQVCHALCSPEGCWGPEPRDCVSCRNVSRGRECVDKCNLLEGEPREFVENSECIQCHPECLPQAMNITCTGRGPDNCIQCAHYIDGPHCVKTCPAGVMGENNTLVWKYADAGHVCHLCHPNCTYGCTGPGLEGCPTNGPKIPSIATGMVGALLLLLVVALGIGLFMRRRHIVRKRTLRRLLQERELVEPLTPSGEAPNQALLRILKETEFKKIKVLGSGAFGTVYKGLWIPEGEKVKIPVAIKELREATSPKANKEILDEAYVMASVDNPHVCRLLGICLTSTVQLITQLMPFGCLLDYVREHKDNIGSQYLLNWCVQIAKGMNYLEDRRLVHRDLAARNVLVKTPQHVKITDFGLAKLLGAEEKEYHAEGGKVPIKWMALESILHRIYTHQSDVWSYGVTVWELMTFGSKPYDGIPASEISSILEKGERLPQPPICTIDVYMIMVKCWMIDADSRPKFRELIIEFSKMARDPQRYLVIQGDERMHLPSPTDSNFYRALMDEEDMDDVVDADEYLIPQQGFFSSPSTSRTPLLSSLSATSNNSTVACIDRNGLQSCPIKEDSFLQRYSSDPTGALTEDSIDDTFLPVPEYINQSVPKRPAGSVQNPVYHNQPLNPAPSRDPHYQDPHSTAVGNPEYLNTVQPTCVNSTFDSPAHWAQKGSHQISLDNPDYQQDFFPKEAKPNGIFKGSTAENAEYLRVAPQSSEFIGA

Point of comparison: Cc1oc2ncnc(Nc3cccc(Cl)c3)c2c1CO, inhibition 69%. Against it:
- CCOC(=O)c1c(C)oc2ncnc(Nc3cccc(F)c3)c12 — lower, 2%

Each compound was assayed on SK-MEL-28 (assay: Growth inhibition of human SK-MEL-28 cells assessed as cell growth at 10 uM incubated for 48 hrs by sulforhodamine B assay relative to control). Conditions: SK-MEL-28, 48 h, read-out: Activity.
Type: functional

Point of comparison: Cc1oc2ncnc(Nc3cccc(Cl)c3)c2c1CO, growth at 10 µM 106%. Against it:
- CCOC(=O)c1c(C)oc2ncnc(Nc3cccc(F)c3)c12 — lower, 98.2%

What follows are compounds tested on KM12 (assay: Growth inhibition of human KM12 cells assessed as cell growth at 10 uM incubated for 48 hrs by sulforhodamine B assay relative to control). Conditions: KM12, 48 h, read-out: Activity.
Type: functional

Point of comparison: CCOC(=O)c1c(C)oc2ncnc(Nc3cccc(F)c3)c12, growth at 10 µM 100%. Against it:
- Cc1oc2ncnc(Nc3cccc(Cl)c3)c2c1CO — lower, 91.4%

Each compound was assayed on DU-145 (assay: Growth inhibition of human DU145 cells assessed as cell growth at 10 uM incubated for 48 hrs by sulforhodamine B assay relative to control). Conditions: DU-145, 48 h, read-out: Activity.
Type: functional

Point of comparison: Cc1oc2ncnc(Nc3cccc(Cl)c3)c2c1CO, growth at 10 µM 86.2%. Against it:
- CCOC(=O)c1c(C)oc2ncnc(Nc3cccc(F)c3)c12 — higher, 99%

These compounds were tested on SK-OV-3 (assay: Growth inhibition of human SKOV3 cells assessed as cell growth at 10 uM incubated for 48 hrs by sulforhodamine B assay relative to control). Conditions: SK-OV-3, 48 h, read-out: Activity.
Type: functional

Point of comparison: CCOC(=O)c1c(C)oc2ncnc(Nc3cccc(F)c3)c12, growth at 10 µM 101%. Against it:
- Cc1oc2ncnc(Nc3cccc(Cl)c3)c2c1CO — the same, 101%

Each compound was assayed on HCT-15 (assay: Growth inhibition of human HCT15 cells assessed as cell growth at 10 uM incubated for 48 hrs by sulforhodamine B assay relative to control). Conditions: HCT-15, 48 h, read-out: Activity.
Type: functional

Point of comparison: Cc1oc2ncnc(Nc3cccc(Cl)c3)c2c1CO, growth at 10 µM 67.3%. Against it:
- CCOC(=O)c1c(C)oc2ncnc(Nc3cccc(F)c3)c12 — higher, 95.3%

The compounds below were run on K562 (assay: Growth inhibition of human K562 cells assessed as cell growth at 10 uM incubated for 48 hrs by sulforhodamine B assay relative to control). Conditions: K562, 48 h, read-out: Activity.
Type: functional

Point of comparison: CCOC(=O)c1c(C)oc2ncnc(Nc3cccc(F)c3)c12, growth at 10 µM 101%. Against it:
- Cc1oc2ncnc(Nc3cccc(Cl)c3)c2c1CO — lower, 85.4%

The compounds below were run on CAKI-1 (assay: Growth inhibition of human Caki1 cells assessed as cell growth at 10 uM incubated for 48 hrs by sulforhodamine B assay relative to control). Conditions: CAKI-1, 48 h, read-out: Activity.
Type: functional

Point of comparison: CCOC(=O)c1c(C)oc2ncnc(Nc3cccc(F)c3)c12, growth at 10 µM 92%. Against it:
- Cc1oc2ncnc(Nc3cccc(Cl)c3)c2c1CO — lower, 53.7%

These compounds were tested on LOX IMVI (assay: Growth inhibition of human LOXIMVI cells assessed as cell growth at 10 uM incubated for 48 hrs by sulforhodamine B assay relative to control). Conditions: read-out: Activity.
Type: functional

Point of comparison: CCOC(=O)c1c(C)oc2ncnc(Nc3cccc(F)c3)c12, growth at 10 µM 105%. Against it:
- Cc1oc2ncnc(Nc3cccc(Cl)c3)c2c1CO — lower, 98.4%

What follows are compounds tested on SNB-75 (assay: Growth inhibition of human SNB75 cells assessed as cell growth at 10 uM incubated for 48 hrs by sulforhodamine B assay relative to control). Conditions: SNB-75, 48 h, read-out: Activity.
Type: functional

Point of comparison: CCOC(=O)c1c(C)oc2ncnc(Nc3cccc(F)c3)c12, growth at 10 µM 107%. Against it:
- Cc1oc2ncnc(Nc3cccc(Cl)c3)c2c1CO — lower, 86.5%

The compounds below were run on HOP-62 (assay: Growth inhibition of human HOP62 cells assessed as cell growth at 10 uM incubated for 48 hrs by sulforhodamine B assay relative to control). Conditions: HOP-62, 48 h, read-out: Activity.
Type: functional

Point of comparison: CCOC(=O)c1c(C)oc2ncnc(Nc3cccc(F)c3)c12, growth at 10 µM 101%. Against it:
- Cc1oc2ncnc(Nc3cccc(Cl)c3)c2c1CO — lower, 89%
